These results are taken from ChEMBL document CHEMBL3616412, “Re-engineering nalidixic acid's chemical scaffold: A step towards the development of novel anti-tubercular and anti-bacterial leads for resistant pathogens” (2015).

The MIC is the lowest concentration found to suppress growth.

Values after ≈ are worked out from the molar mass of the structure shown.

Assay [1] relates to Mycobacterium tuberculosis. The assay is described as follows: Antitubercular activity against Mycobacterium tuberculosis H37Rv ATCC 27294 after 5 days by micro alamar blue assay. The assay is classed as functional.
The test system of assay [2] is Staphylococcus aureus. Nature of the assay: Antibacterial activity against Staphylococcus aureus after 24 hrs by agar dilution method. The assay is classed as functional.
Assay [3] deals with Pseudomonas aeruginosa. The assay is described as follows: Antibacterial activity against Pseudomonas aeruginosa after 24 hrs by agar dilution method. It counts as functional. Background: In agar dilution, organisms are placed on agar that contains the substance at set levels.
Assay [4] relates to Escherichia coli. The assay is described as follows: Antibacterial activity against Escherichia coli after 24 hrs by agar dilution method. The assay is classed as functional.
The subject of assay [5] is Salmonella paratyphi. The assay is described as follows: Antibacterial activity against Salmonella paratyphi at 10 ug/disk after 24 hrs by agar plate disk diffusion method. It counts as functional, Salmonella enterica subsp. enterica serovar Paratyphi A. As to conditions: Salmonella enterica, read-out: DIZ.
In assay [6] the test system is Staphylococcus aureus. The assay is described as follows: Antibacterial activity against Staphylococcus aureus at 10 ug/disk after 24 hrs by agar plate disk diffusion method. The assay is classed as functional. As to conditions: read-out: DIZ.
In assay [7] the test system is Pseudomonas aeruginosa. The assay is described as follows: Antibacterial activity against Pseudomonas aeruginosa after 5 days by microdilution method. It counts as functional. Conditions: 120 h. A general note: In broth dilution the organism is exposed to a series of concentrations in liquid medium.
In assay [8] the test system is Escherichia coli. Nature of the assay: Antibacterial activity against Escherichia coli after 5 days by microdilution method. The assay is classed as functional. Conditions: 120 h.
Assay [9] relates to Salmonella typhi. The assay is described as follows: Antibacterial activity against Salmonella typhi after 5 days by microdilution method. It counts as functional, Salmonella enterica subsp. enterica serovar Typhi. As to conditions: Salmonella enterica, 120 h.
In assay [10] the test system is Salmonella typhi. The assay is described as follows: Antibacterial activity against Salmonella typhi after 24 hrs by agar dilution method. Conditions: Salmonella enterica. It counts as functional, Salmonella enterica subsp. enterica serovar Typhi.
Assay [11] deals with Proteus vulgaris. Nature of the assay: Antibacterial activity against Proteus vulgaris at 10 ug/disk after 24 hrs by agar plate disk diffusion method. The assay is classed as functional. As to conditions: read-out: DIZ. A general note: Agar diffusion results depend on both activity and mobility in agar.
Assay [12] has as its system Proteus vulgaris. The assay is described as follows: Antibacterial activity against Proteus vulgaris after 5 days by microdilution method. The assay is classed as functional. Conditions: 120 h.
Assay [13] deals with Staphylococcus aureus. The assay is described as follows: Antibacterial activity against Staphylococcus aureus after 5 days by microdilution method. The assay is classed as functional. Conditions: 120 h.
Assay [14] concerns Salmonella paratyphi. The assay is described as follows: Antibacterial activity against Salmonella paratyphi after 24 hrs by agar dilution method. The assay is classed as functional, Salmonella enterica subsp. enterica serovar Paratyphi A. Conditions: Salmonella enterica.
Assay [15] concerns Escherichia coli. The assay is described as follows: Antibacterial activity against Escherichia coli at 10 ug/disk after 24 hrs by agar plate disk diffusion method. Conditions: read-out: DIZ. It counts as functional.
Assay [16] has as its system Pseudomonas aeruginosa. Nature of the assay: Antibacterial activity against Pseudomonas aeruginosa at 10 ug/disk after 24 hrs by agar plate disk diffusion method. The assay is classed as functional. Conditions: read-out: DIZ.
Assay [17] relates to Proteus vulgaris. Nature of the assay: Antibacterial activity against Proteus vulgaris after 24 hrs by agar dilution method. The assay is classed as functional.
Assay [18] relates to Salmonella paratyphi. The assay is described as follows: Antibacterial activity against Salmonella paratyphi after 5 days by microdilution method. The assay is classed as functional, Salmonella enterica subsp. enterica serovar Paratyphi A. Conditions: Salmonella enterica, 120 h.
The subject of assay [19] is Salmonella typhi. Nature of the assay: Antibacterial activity against Salmonella typhi at 10 ug/disk after 24 hrs by agar plate disk diffusion method. The assay is classed as functional, Salmonella enterica subsp. enterica serovar Typhi. Conditions: Salmonella enterica, read-out: DIZ.

With `NNC(=O)c1ccncc1` [ISONIAZID], the “inhibition (INH)” value in assay [1] was 100%.

`CCn1cc(C(=O)O)c(=O)c2ccc(C)nc21` [NALIDIXIC ACID]: the MIC turned out to be 0.12 µg/mL (≈ 0.517 µM) in the assay on Staphylococcus aureus [2]; 1 µg/mL (≈ 4.31 µM) with Pseudomonas aeruginosa [3]; 0.25 µg/mL (≈ 1.08 µM) against Escherichia coli [4]; 1 µg/mL (≈ 4.31 µM) in the assay on Pseudomonas aeruginosa [7]; 0.25 µg/mL (≈ 1.08 µM) against Escherichia coli [8]; 1 µg/mL (≈ 4.31 µM) with Salmonella typhi [9]. Moreover, the MIC in the assay with Salmonella typhi [10] came out at 1 µg/mL (≈ 4.31 µM); against Proteus vulgaris [12], 0.25 µg/mL (≈ 1.08 µM); against Staphylococcus aureus [13] it was 0.12 µg/mL (≈ 0.517 µM); with Salmonella paratyphi [14] it was 1 µg/mL (≈ 4.31 µM); in the assay with Proteus vulgaris [17] it was 0.25 µg/mL (≈ 1.08 µM); with Salmonella paratyphi [18] it was 1 µg/mL (≈ 4.31 µM). Moreover, the zone of inhibition at 10 µg/disc with Salmonella paratyphi [5] was found to be 24 mm; in the assay on Staphylococcus aureus [6], 27 mm; with Proteus vulgaris [11], 25 mm; in the assay with Escherichia coli [15], 26 mm; in the assay with Pseudomonas aeruginosa [16], 22 mm; with Salmonella typhi [19], 25 mm. Further, the “inhibition (INH)” value in [1] came out at 63%.

Regarding `CCn1cc(C(=O)NN)c(=O)c2ccc(C)nc21`, the MIC with Staphylococcus aureus [2] came to 0.12 µg/mL (≈ 0.487 µM); in the assay on Pseudomonas aeruginosa [3] it was 0.25 µg/mL (≈ 1.02 µM); with Escherichia coli [4], 0.06 µg/mL (≈ 0.244 µM); in the assay on Pseudomonas aeruginosa [7], 0.25 µg/mL (≈ 1.02 µM); against Escherichia coli [8], 0.06 µg/mL (≈ 0.244 µM); in the assay with Salmonella typhi [9], 0.5 µg/mL (≈ 2.03 µM). The MIC against Salmonella typhi [10] was determined as 0.5 µg/mL (≈ 2.03 µM); in the assay with Proteus vulgaris [12], 0.06 µg/mL (≈ 0.244 µM); against Staphylococcus aureus [13], 0.12 µg/mL (≈ 0.487 µM); against Salmonella paratyphi [14], 0.5 µg/mL (≈ 2.03 µM); against Proteus vulgaris [17], 0.06 µg/mL (≈ 0.244 µM); against Salmonella paratyphi [18] it was 0.5 µg/mL (≈ 2.03 µM). Also, the zone of inhibition at 10 µg/disc in the assay on Salmonella paratyphi [5] is 20 mm; in the assay on Staphylococcus aureus [6], 28 mm; in the assay with Proteus vulgaris [11] it was 34 mm; with Escherichia coli [15], 39 mm; in the assay on Pseudomonas aeruginosa [16] it was 39 mm; in the assay with Salmonella typhi [19], 28 mm. Further, the “inhibition (INH)” value in [1] is listed as 80%.

Turning to `CCOC(=O)c1cn(CC)c2nc(C)ccc2c1=O`, the MIC against Staphylococcus aureus [2] worked out at 0.25 µg/mL (≈ 0.96 µM); against Pseudomonas aeruginosa [3] it was 2 µg/mL (≈ 7.68 µM); with Escherichia coli [4], 0.5 µg/mL (≈ 1.92 µM); with Pseudomonas aeruginosa [7], 2 µg/mL (≈ 7.68 µM); against Escherichia coli [8] it was 0.5 µg/mL (≈ 1.92 µM); in the assay with Salmonella typhi [9], 1 µg/mL (≈ 3.84 µM). Moreover, the MIC came out at 1 µg/mL (≈ 3.84 µM) against Salmonella typhi [10]; 0.5 µg/mL (≈ 1.92 µM) in the assay with Proteus vulgaris [12]; 0.25 µg/mL (≈ 0.96 µM) against Staphylococcus aureus [13]; 1 µg/mL (≈ 3.84 µM) with Salmonella paratyphi [14]; 0.5 µg/mL (≈ 1.92 µM) against Proteus vulgaris [17]; 1 µg/mL (≈ 3.84 µM) in the assay with Salmonella paratyphi [18]. The zone of inhibition at 10 µg/disc is 19 mm in the assay on Salmonella paratyphi [5]; 24 mm with Staphylococcus aureus [6]; 23 mm in the assay with Proteus vulgaris [11]; 22 mm in the assay with Escherichia coli [15]; 17 mm in the assay with Pseudomonas aeruginosa [16]; 21 mm with Salmonella typhi [19]. Besides, in assay [1], the “inhibition (INH)” value amounted to 78%.

As to `CCn1cc(C(=O)NNC(N)=S)c(=O)c2ccc(C)nc21`, the MIC in the assay on Staphylococcus aureus [2] amounted to 0.12 µg/mL (≈ 0.393 µM); in the assay on Pseudomonas aeruginosa [3] it was 0.25 µg/mL (≈ 0.819 µM); with Escherichia coli [4], 0.12 µg/mL (≈ 0.393 µM); in the assay with Pseudomonas aeruginosa [7], 0.25 µg/mL (≈ 0.819 µM); with Escherichia coli [8] it was 0.12 µg/mL (≈ 0.393 µM); in the assay with Salmonella typhi [9], 0.5 µg/mL (≈ 1.64 µM). The MIC was 0.5 µg/mL (≈ 1.64 µM) against Salmonella typhi [10]; 0.12 µg/mL (≈ 0.393 µM) with Proteus vulgaris [12]; 0.12 µg/mL (≈ 0.393 µM) against Staphylococcus aureus [13]; 0.5 µg/mL (≈ 1.64 µM) with Salmonella paratyphi [14]; 0.12 µg/mL (≈ 0.393 µM) against Proteus vulgaris [17]; 0.5 µg/mL (≈ 1.64 µM) against Salmonella paratyphi [18]. The zone of inhibition at 10 µg/disc in the assay on Salmonella paratyphi [5] came to 23 mm; in the assay on Staphylococcus aureus [6], 28 mm; in the assay on Proteus vulgaris [11], 30 mm; with Escherichia coli [15], 29 mm; in the assay on Pseudomonas aeruginosa [16], 26 mm; in the assay on Salmonella typhi [19], 23 mm. Besides, the “inhibition (INH)” value in [1] was 84%.

Take `CCn1cc(-c2n[nH]c(=S)n2-c2nc3ccccc3[nH]c2=O)c(=O)c2ccc(C)nc21`: the MIC in the assay on Staphylococcus aureus [2] was determined as 0.06 µg/mL (≈ 0.139 µM); against Pseudomonas aeruginosa [3], 1 µg/mL (≈ 2.32 µM); in the assay on Escherichia coli [4] it was 0.06 µg/mL (≈ 0.139 µM); with Pseudomonas aeruginosa [7] it was 1 µg/mL (≈ 2.32 µM); with Escherichia coli [8] it was 0.06 µg/mL (≈ 0.139 µM); against Salmonella typhi [9] it was 1 µg/mL (≈ 2.32 µM). The MIC in the assay with Salmonella typhi [10] came out at 1 µg/mL (≈ 2.32 µM); in the assay with Proteus vulgaris [12], 0.5 µg/mL (≈ 1.16 µM); in the assay on Staphylococcus aureus [13], 0.06 µg/mL (≈ 0.139 µM); with Salmonella paratyphi [14], 1 µg/mL (≈ 2.32 µM); against Proteus vulgaris [17], 0.5 µg/mL (≈ 1.16 µM); against Salmonella paratyphi [18], 1 µg/mL (≈ 2.32 µM). Further, the zone of inhibition at 10 µg/disc in the assay with Salmonella paratyphi [5] stood at 23 mm; with Staphylococcus aureus [6], 30 mm; with Proteus vulgaris [11] it was 30 mm; in the assay with Escherichia coli [15], 28 mm; with Pseudomonas aeruginosa [16], 29 mm; in the assay with Salmonella typhi [19] it was 22 mm. Also, the “inhibition (INH)” value in [1] is 77%.
